“Also recorded” adds a separate entry of the source.
What was measured:
urothelial cancer = test: Phase I/II clinical trial of IMMU-132, urothelial; format: in vivo, human; conditions: 11 assessable patients, 8 or 10 mg/kg
[1] = tested on: diverse metastatic solid cancers; test: Phase I/II clinical trial of IMMU-132, all tumor types; format: in vivo, human
Method: Dose escalation followed a standard 3+3 scheme with 4 planned dose levels and dose delay or reduction allowed. Twenty-five patients (52-60 years old, 3 median prior chemotherapy regimens) were treated at dose levels of 8 (N=7), 10 (N=6), 12 (N=9), and 18 (N=3) mg/kg. […] Lower doses were acceptable for extended treatment with no treatment-related grade 4 toxicities and grade 3 toxicities limited to fatigue (N=3), neutropenia (N=2), diarrhea (N=1), and leukopenia (N=1). […] No pre-selection of patients based on tumor Trop-2 expression was undertaken.
The trial was designed as a standard 3+3 Phase I design, starting at a dose of 8 mg/kg per injection, with dosages given weekly for 2 weeks in a 3-week treatment cycle.
Prior to the start of each infusion, most patients received acetaminophen, anti-histamines (H1 and H2 blockers), and dexamethasone. Prophylactic use of antiemetics or anti-diarrheal medications was prohibited. Therapy consisted of 2 consecutive doses given on days 1 and 8 of a 3-week treatment cycle, with the intent to allow patients to continue treatment for up to 8 cycles (i.e., 16 treatments) unless there was unacceptable toxicity or progression. Patients showing disease stabilization or response after 8 cycles could continue treatments.

[2] = storage stability of lyophilized IMMU-132; format: physicochemical
[3] = tested on: triple-negative breast cancer; test: Phase I/II clinical trial of IMMU-132, TNBC; format: in vivo, human
Source text: […] […] Previous treatments included cyclophosphamide, doxorubicin, carboplatin, gemcitabine, capecitabine, eribulin, cisplatinum, anastrozole, vinorelbine, bevacizumab and tamoxifen. […] The median time to progression in this heavily pretreated population of TNBC patients was 9.4 months, with a range of 2.9 to 14.2 months to date. However, 72% of patients in the study were still ongoing treatment.

[4] = Phase I/II clinical trial of IMMU-132, immunogenicity; format: in vivo, human; conditions: repeated dosing
[5] = tested on: non-small cell lung cancer; test: Phase I/II clinical trial of IMMU-132, NSCLC; format: in vivo, human
Method: Out of 29 patients, there were 8 PR and 13 SD. […] The median time to progression was […], with a range from 1.8 to 15.5+ months and 47% of patients still undergoing treatment. Median PFS was 3.4 months at 8 mg/kg and 3.8 months at 10 mg/kg. However, studies are still ongoing and the median progression-free survival numbers are likely to improve.

[6] = tested on: stage IV metastatic gastric cancer; test: therapy of a gastric cancer patient; format: in vivo, human; conditions: after another 5 courses
[7] = tested on: metastatic pancreatic cancer; test: Phase I/II clinical trial of IMMU-132, PDC; format: in vivo, human
[8] = tolerability in Cynomolgus monkeys; format: in vivo
Method: FIG. 6C. […] All animals were bled on day −1, 3, and 6. Four monkeys were bled on day 11 in the 0.96 mg/kg group, 3 in the 1.92 mg/kg group. Changes in neutrophil counts in Cynomolgus monkeys.
FIG. 6D. […] All animals were bled on day −1, 3, and 6. Four monkeys were bled on day 11 in the 0.96 mg/kg group, 3 in the 1.92 mg/kg group. Changes in platelet counts in Cynomolgus monkeys.

[9] = tested on: NCI-N87 human gastric tumors; test: NCI-N87 xenograft therapy (FIG. 23); conditions: 0.35 mg twice weekly for four weeks
[10] = target: T1, human neonatal receptor (FcRn) (Homo sapiens, UniProt P55899); test: surface plasmon resonance binding (BIACORE); conditions: three independent runs
T1 construct: made in house
Method: (§1) Briefly, rhTrop-2/TACSTD2 (Sino Biological, Inc.) or recombinant human neonatal receptor (FcRn), produced as described (Wang et al., 2011, Drug Metab Dispos 39:1469-77), was immobilized with an amine coupling kit (GE Healthcare; Cat. No. BR-1000-50) on a CM5 sensor chip (GE Healthcare; Cat. #BR-1000-12) following manufacturer's instructions for a low-density chip. […] Each set would make up a separate run on the BIACORE (BIACORE-X; Biacore Inc., Piscataway, N.J.) and data were analyzed using BIAevaluation Software (Biacore Inc., v4.1). Analysis was performed with a 1:1 (Langmuir) Binding Model and Fit, using all five concentration points for each sample run to determine the best fit (lowest χ^2 value). The KD value was calculated using the formula KD=kd1/ka1, where kd1 is the dissociation rate-constant and ka1 is the association-rate constant.

rhTrop-2/TACSTD2 = target: T2, rhTrop-2/TACSTD2 (Homo sapiens, UniProt P09758); test: surface plasmon resonance binding (BIACORE); conditions: three independent runs
T2 construct: purchased Sino Biological, Inc
T2 sequence (P09758 27-323): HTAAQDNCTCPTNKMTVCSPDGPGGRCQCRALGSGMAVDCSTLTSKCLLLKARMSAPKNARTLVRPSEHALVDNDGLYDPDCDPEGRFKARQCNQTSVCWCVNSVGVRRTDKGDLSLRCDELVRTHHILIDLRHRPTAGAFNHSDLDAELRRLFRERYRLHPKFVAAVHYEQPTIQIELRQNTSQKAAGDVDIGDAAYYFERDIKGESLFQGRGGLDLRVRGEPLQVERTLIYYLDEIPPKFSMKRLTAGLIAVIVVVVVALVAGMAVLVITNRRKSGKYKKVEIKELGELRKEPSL
Method: as §1

COLO 205 tumors = test: COLO 205 xenograft therapy; conditions: 0.4 mg/kg, q4dx8; 28-day treatment period

T1 sequence (P55899 24-297 limits assumed): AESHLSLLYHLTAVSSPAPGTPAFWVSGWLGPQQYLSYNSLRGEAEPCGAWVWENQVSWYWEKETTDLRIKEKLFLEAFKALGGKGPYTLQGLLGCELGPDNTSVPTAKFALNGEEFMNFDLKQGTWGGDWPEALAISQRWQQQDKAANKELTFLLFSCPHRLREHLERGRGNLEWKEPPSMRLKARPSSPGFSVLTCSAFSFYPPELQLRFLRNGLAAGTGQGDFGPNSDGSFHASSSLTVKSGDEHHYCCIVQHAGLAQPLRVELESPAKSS
T1 sequence (P61769 21-119 partner): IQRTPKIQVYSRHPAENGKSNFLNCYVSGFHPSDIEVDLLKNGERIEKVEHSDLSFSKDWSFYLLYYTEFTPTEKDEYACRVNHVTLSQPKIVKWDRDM

For IMMU-132, the PR (urothelial cancer) was 6, the “duration of maintained disease control” value ([1]; 12 patients) was 16-36 weeks and the long-term stable disease ([1]; 24 assessable patients, Phase I) was “Over 80%”. The disease response ([1]; 48 assessable patients (excluding PDC)) was 79%, the “TTP, range” value ([1]; 48 patients) was 6.0 to 51.4 wks and the “time to progression (TTP)” value ([1]; 48 patients) was at least 12.6 wks. For the same substance, the “patients with partial response” value ([1]; Phase I, 25 patients) was 3, the “patients with progression (PD)” value ([1]; Phase I, 25 patients) was 7 and the “patients with stable disease” value ([1]; Phase I, 25 patients) was 15. For the same substance, the “responses or disease stabilization after prior topoisomerase I inhibitor” value ([1]; human, in vivo) was 7 of 9, the PD ([1]; of 48 assessable patients) was 14 and the PR ([1]; of 48 assessable patients) was 7. For the same substance, the “stability once prepared and lyophilized” value [2] was “stable for several years”, the “confirmed complete responses (CR)” value ([3]; 10 mg/kg) was 2 and the “partial responses (PR)” value ([3]; 10 mg/kg) was 13. The “time to progression, range” value ([3]; 10 mg/kg) was 2.9 to 14.2 months, the “clinical benefit rate (PR+SD>6 months)” value ([3]; 17 TNBC patients) was 46% and the PD ([3]; of 8 assessable patients) was 2. For the same substance, the PR ([3]; of 8 assessable patients) was 2, the “anti-hRS7 / anti-SN-38 antibody response” value [4] was “No anti-hRS7 or anti-SN-38 antibodies were detected; also recorded: no anti-hRS7 or anti-SN-38 antibody response has been detected; also recorded: none of the patients developed an antibody response to IMMU-132 or SN-38” and the “anti-hRS7 / anti-SN-38 antibody response” value ([4]; listed as sacituzumab govitecan) was “no antibody response to the hRS7 IgG or SN-38 was detected”. It also gave a PD ([5]; of 5 assessable patients) of 1, a PR ([5]; of 5 assessable patients) of 1 and a PR ([5]; out of 29 patients, 8 or 10 mg/kg) of 8. The “primary target lesion at first CT” value ([5]; person, from 5.6 cm, after 6 doses) was 3.2 cm, the “disease reduction by RECIST at follow-up” value [6] was “about 35%” and the “decrease in serum CA19-9 titers” value ([7]; 3 patients with stable disease) was 23 to 72%. For the same substance, the “duration of stable disease, range” value ([7]; 8 patients) was 8 to 21.4 wks, the stable disease ([7]; 13 CT-assessable PDC patients) was 62% and the “median TTP / duration of SD” value ([7]; CT-assessable PDC patients, 8.0 weeks in last prior therapy) was 12.7 wks. For the same substance, the “TTP, range” value ([7]; PDC patients) was 2 to 21.4 wks, the “time to progression, range” value ([7]; Phase I, N=7) was 1.0 to 4.0 months and the “median TTP” value ([7]; all 14 PDC patients) was 11.9 wks. For the same substance, the MTD ([8]; cynomolgus monkey, in vivo) was 2×0.96 and 1.92, the “human equivalent dose of MTD” value ([8]; cynomolgus monkey, in vivo) was 2×0.3 to 0.6 and the blood counts ([8]; cynomolgus monkey, in vivo, 0.96 mg/kg) was “only transient decreases in blood counts”. For the same substance, the tolerated dose ([8]; mild and reversible toxicity) was 0.96 mg/kg/dose and the partial responders [9] was 6 of 7.

With hRS7 IgG the Kd [10] was 92.4 ± 5.7 nM, the Kd (rhTrop-2/TACSTD2) was 0.51 ± 0.04 nM and the “tumor volume (TV)” value (COLO 205 tumors) was 1.77±0.93 cm^3.

From patent US10954305B2 (Immunomedics, Inc., priority 2016, dated 2021)
